Source: ChEMBL document CHEMBL3797039, “Bcl-2/MDM2 Dual Inhibitors Based on Universal Pyramid-Like α-Helical Mimetics” (J Med Chem, 2016)
Calls of active or inactive are those of the source. The calls are words filed in the database; no cut-off is given here.

Experiments:
[1] = biological target: T1, Apoptosis regulator Bcl-2 (Homo sapiens, UniProt P10415); test: Displacement of FAM-Bid peptide from N-terminal 8x His-tagged Bcl-2 (unknown origin) expressed in Escherichia coli BL21 (DE3) after 30 mins by fluorescence polarization assay
T1 sequence (P10415 whole entry, the tested form may be a part): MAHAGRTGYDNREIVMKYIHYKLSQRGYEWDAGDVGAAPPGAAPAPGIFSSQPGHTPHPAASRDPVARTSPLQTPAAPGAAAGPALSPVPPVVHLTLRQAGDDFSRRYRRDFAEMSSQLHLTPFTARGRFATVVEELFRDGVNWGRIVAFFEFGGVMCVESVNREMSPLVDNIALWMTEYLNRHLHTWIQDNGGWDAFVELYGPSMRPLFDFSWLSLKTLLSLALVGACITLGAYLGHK

[2] = biological target: T2, E3 ubiquitin-protein ligase Mdm2 (Homo sapiens, UniProt Q00987); test: Displacement of FAM-p53TAD peptide from N-terminal 8x His-tagged human MDM2 (25 to 108 residues) expressed in Escherichia coli BL21 (DE3) after 30 mins by fluorescence polarization assay
Target sequence in this assay (Q00987 whole entry, the tested form may be a part): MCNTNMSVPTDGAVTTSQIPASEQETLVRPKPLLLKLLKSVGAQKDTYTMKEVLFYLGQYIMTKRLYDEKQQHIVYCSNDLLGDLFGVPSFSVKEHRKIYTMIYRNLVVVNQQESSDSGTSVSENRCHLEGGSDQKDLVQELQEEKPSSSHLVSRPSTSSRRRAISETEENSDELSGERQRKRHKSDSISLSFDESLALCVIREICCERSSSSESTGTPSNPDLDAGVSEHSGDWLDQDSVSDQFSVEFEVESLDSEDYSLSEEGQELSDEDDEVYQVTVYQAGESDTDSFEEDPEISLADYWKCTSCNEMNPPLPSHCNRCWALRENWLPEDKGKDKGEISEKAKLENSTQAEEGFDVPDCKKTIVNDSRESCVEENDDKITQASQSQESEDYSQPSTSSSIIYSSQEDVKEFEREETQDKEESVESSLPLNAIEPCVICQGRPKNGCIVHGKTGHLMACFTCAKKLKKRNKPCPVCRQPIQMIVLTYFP

[3] = biological target: T3, Induced myeloid leukemia cell differentiation protein Mcl-1 (Homo sapiens, UniProt Q07820); test: Displacement of FAM-Bid peptide from N-terminal 8x His-tagged MCl-1 (unknown origin) expressed in Escherichia coli BL21 (DE3) after 30 mins by fluorescence polarization assay
T3 sequence (Q07820 whole entry): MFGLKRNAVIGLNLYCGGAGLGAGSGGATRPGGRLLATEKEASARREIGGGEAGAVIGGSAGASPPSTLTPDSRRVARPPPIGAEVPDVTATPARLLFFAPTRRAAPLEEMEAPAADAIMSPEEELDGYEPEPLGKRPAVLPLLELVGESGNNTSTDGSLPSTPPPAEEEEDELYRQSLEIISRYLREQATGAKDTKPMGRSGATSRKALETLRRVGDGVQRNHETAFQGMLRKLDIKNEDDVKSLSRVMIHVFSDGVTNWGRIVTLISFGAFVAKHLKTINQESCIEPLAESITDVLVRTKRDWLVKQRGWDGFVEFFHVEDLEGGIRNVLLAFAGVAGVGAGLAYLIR

[4] = Cell cycle arrest in human HCT116 p53-/- cells assessed as accumulation at S phase at 10 uM after 24 hrs by propidium iodide staining-based flow cytometric method (reference value: 36%); assay type: functional; details: HCT-116
[5] = biological target: T3, Induced myeloid leukemia cell differentiation protein Mcl-1; test: Inhibition of Mcl-1/Bax interaction in human DMS53 cells harboring p53 mutant at 5 to 10 uM after 12 hrs by immunoprecipitation method; assay type: cell-based; details: DMS-53
[6] = Cell cycle arrest in human HCT116 p53+/+ cells assessed as accumulation at S phase at 5 uM after 24 hrs by propidium iodide staining-based flow cytometric method (reference value: 42%); assay type: functional; details: HCT-116
[7] = biological target: T1, Apoptosis regulator Bcl-2; test: Inhibition of BCl-2/Bim interaction in human DMS53 cells harboring p53 mutant at 5 to 10 uM after 12 hrs by immunoprecipitation method; assay type: cell-based; details: DMS-53
[8] = biological target: T1, Apoptosis regulator Bcl-2; test: Inhibition of BCl-2/Bax interaction in human DMS53 cells harboring p53 mutant at 5 to 10 uM after 12 hrs by immunoprecipitation method; assay type: cell-based; details: DMS-53
[9] = Cell cycle arrest in human HCT116 p53-/- cells assessed as accumulation at G2/M phase at 10 uM after 24 hrs by propidium iodide staining-based flow cytometric method (reference value: […]%); assay type: functional; details: HCT-116
[10] = Cell cycle arrest in human HCT116 p53-/- cells assessed as accumulation at G1 phase at 10 uM after 24 hrs by propidium iodide staining-based flow cytometric method (reference value: 28%); assay type: functional; details: HCT-116
[11] = Cell cycle arrest in human HCT116 p53+/+ cells assessed as accumulation at G1 phase at 5 uM after 24 hrs by propidium iodide staining-based flow cytometric method (reference value: 31%); assay type: functional; details: HCT-116
[12] = Cell cycle arrest in human HCT116 p53+/+ cells assessed as accumulation at G2/M phase at 5 uM after 24 hrs by propidium iodide staining-based flow cytometric method (reference value: 26%); assay type: functional; details: HCT-116
[13] = biological target: T1, Apoptosis regulator Bcl-2; test: Binding affinity to 15N-labeled Bcl-2 (unknown origin) by 2D 1H-15N HSQC NMR spectroscopic method
[14] = Cell cycle arrest in human HCT116 p53-/- cells assessed as accumulation at <G1 phase at 10 uM after 24 hrs by propidium iodide staining-based flow cytometric method (reference value: 0.6%); assay type: functional; details: HCT-116
[15] = Cell cycle arrest in human HCT116 p53+/+ cells assessed as accumulation at <G1 phase at 5 uM after 24 hrs by propidium iodide staining-based flow cytometric method (reference value: 0.3%); assay type: functional; details: HCT-116
[16] = biological target: T3, Induced myeloid leukemia cell differentiation protein Mcl-1; test: Inhibition of Mcl-1/Bim interaction in human DMS53 cells harboring p53 mutant at 5 to 10 uM after 12 hrs by immunoprecipitation method; assay type: cell-based; details: DMS-53
[17] = Upregulation of p53 mRNA expression in human HCT116 p53+/+ cells at 10 uM after 12 hrs by qPCR method; assay type: functional, cell-based; details: HCT-116
HCT-116 [18] = test: Effect on p53 expression in human HCT116 p53-/- cells at 10 to 20 uM after 12 hrs by immunoblotting method; assay type: functional, cell-based
DMS-53 [19] = test: Induction of apoptosis in human DMS53 cells harboring p53 mutant assessed as PARP cleavage at 5 to 10 uM after 12 hrs by immunoblotting method; assay type: functional, cell-based
[20] = biological target: T3, Induced myeloid leukemia cell differentiation protein Mcl-1; test: Binding affinity to N-terminal 8x His-tagged MCl-1 (unknown origin) expressed in Escherichia coli BL21 (DE3) by isothermal titration microcalorimetric method
DMS-53 [21] = test: Induction of apoptosis in human DMS53 cells harboring p53 mutant assessed as cytochrome c release at 5 to 10 uM after 12 hrs by immunoblotting method; assay type: functional, cell-based
[22] = biological target: T2, E3 ubiquitin-protein ligase Mdm2; test: Binding affinity to N-terminal 8x His-tagged human MDM2 (25 to 108 residues) expressed in Escherichia coli BL21 (DE3) by isothermal titration microcalorimetric method
Target sequence in this assay (Q00987 whole entry, the tested form may be a part): as the sequence (Q00987 whole entry, the tested form may be a part) above

HCT-116 [23] = test: Effect on p21 expression in human HCT116 p53-/- cells at 10 to 20 uM after 12 hrs by immunoblotting method; assay type: functional, cell-based
DMS-53 [24] = test: Induction of apoptosis in human DMS53 cells harboring p53 mutant assessed as caspase-3 cleavage at 5 to 10 uM after 12 hrs by immunoblotting method; assay type: functional, cell-based
[25] = biological target: T1, Apoptosis regulator Bcl-2; test: Binding affinity to N-terminal 8x His-tagged Bcl-2 (unknown origin) expressed in Escherichia coli BL21 (DE3) by isothermal titration microcalorimetric method
HCT-116 [26] = test: Effect on MDM2 expression in human HCT116 p53-/- cells at 10 to 20 uM after 12 hrs by immunoblotting method; assay type: functional, cell-based
[27] = biological target: T2, E3 ubiquitin-protein ligase Mdm2; test: Inhibition of MDM2-p53 interaction in human HCT116 p53+/+ cells assessed as upregulation of p21 expression at 5 to 10 uM after 12 hrs by immunoblotting method; assay type: cell-based; details: HCT-116
Target sequence in this assay (Q00987 whole entry, looked up, the tested form may be a part): as the sequence (Q00987 whole entry, the tested form may be a part) above

[28] = biological target: T2, E3 ubiquitin-protein ligase Mdm2; test: Inhibition of MDM2-p53 interaction in human HCT116 p53+/+ cells assessed as upregulation of MDM2 expression at 5 to 10 uM after 12 hrs by immunoblotting method; assay type: cell-based; details: HCT-116
Target sequence in this assay (Q00987 whole entry, looked up, the tested form may be a part): as the sequence (Q00987 whole entry, the tested form may be a part) above

[29] = biological target: T2, E3 ubiquitin-protein ligase Mdm2; test: Inhibition of MDM2-p53 interaction in human HCT116 p53+/+ cells assessed as upregulation of p53 expression at 5 to 10 uM after 12 hrs by immunoblotting method; assay type: cell-based; details: HCT-116
Target sequence in this assay (Q00987 whole entry, looked up, the tested form may be a part): as the sequence (Q00987 whole entry, the tested form may be a part) above

HCT-116 [30] = test: Induction of apoptosis in human HCT116 p53+/+ cells after 48 hrs by Annexin V-FITC staining-based flow cytometric method; assay type: functional, cell-based

| Ki [1] [nM] | Ki [2] [nM] | Ki [3] [nM] | Compound | other results |
| --- | --- | --- | --- | --- |
| 694 | 1030 | 451 | CCOc1ccc(-c2cc(C(=O)O)nn2-c2ccc(Oc3ccccc3)cc2)cc1 |  |
| 7000 | 2290 | 3620 | CC(C)Oc1ccc(-c2cc(C(=O)O)nn2-c2ccccc2)cc1 |  |
| > 10000 | 4470 | > 10000 | CC(C)Oc1ccc(C(=O)Nc2c(C(=O)O)nn(-c3ccc(Oc4ccccc4)cc3)c2-c2ccc(OCc3ccccc3)cc2)cc1 |  |
| 855 | 1130 | 635 | CCOc1ccc(-c2c(NC(=O)c3ccccc3)c(C(=O)O)nn2-c2ccc(Oc3ccccc3)cc2)cc1 |  |
| 932 | 712 | 371 | CC(C)Oc1ccc(-c2cc(C(=O)O)nn2-c2ccc(Oc3ccccc3)cc2)cc1 |  |
| 28 | 301 | 81 | CCOc1ccc(-c2c(NC(=O)c3ccc(OC(C)C)cc3)c(C(=O)O)nn2-c2ccc(Oc3ccccc3)cc2)cc1 |  |
| > 10000 | > 25000 | > 10000 | O=C(O)c1cc(-c2ccccc2)n(-c2ccccc2)n1 |  |
| > 10000 |  | > 10000 | COc1ccc(C2=N[C@@H](c3ccc(Cl)cc3)[C@@H](c3ccc(Cl)cc3)N2C(=O)N2CCNC(=O)C2)c(OC(C)C)c1 [NUTLIN-3] | Activity [4]: 35%; inhibition [5]: inactive; Activity [6]: 8%; inhibition [7]: inactive; inhibition [8]: inactive; Activity [9]: 34%; Activity [10]: 29%; Activity [11]: 41%; Activity [12]: 49%; Kd [13]: 15 µM; Activity [14]: 0.8%; Activity [15]: 0.9%; inhibition [16]: inactive |
| 1400 | 422 | 722 | CC(C)COc1ccc(C(=O)Nc2c(C(=O)O)nn(-c3ccc(Oc4ccccc4)cc3)c2-c2ccc(OC(C)C)cc2)cc1 |  |
| 207 | 24300 | 247 | Cc1ccc(/N=c2\c3ccc(C)cc3n(C(=O)c3ccc(C(C)(C)C)cc3)c3c(O)c(O)c(O)cc23)cc1 |  |
| 140 | 107 | 161 | CC(C)Oc1ccc(C(=O)Nc2c(C(=O)O)nn(-c3ccc(Oc4ccccc4)cc3)c2-c2ccc(OC(C)C)cc2)cc1 | Activity [17]: inactive; Activity [4]: 33%; Activity [6]: 6%; Activity (HCT-116 [18]): inactive; Activity [9]: 31%; Activity (DMS-53 [19]): Active; Kd [20]: 265 nM; Activity [10]: 30%; Activity (DMS-53 [21]): Active; Activity [11]: 40%; Kd [22]: 472 nM; Activity [12]: 47%; Activity (HCT-116 [23]): inactive; Activity [14]: 5.2%; Activity (DMS-53 [24]): Active; Kd [25]: 290 nM; Activity [15]: 6.8%; Activity (HCT-116 [26]): inactive |
| > 10000 | 2190 | 2600 | CC(C)Oc1ccc(C(=O)Nc2c(C(=O)O)nn(-c3ccc(C(C)C)cc3)c2-c2ccc(OCc3ccccc3)cc2)cc1 |  |
| 56 | > 25000 | 79 | CC(C)c1ccc2/c(=N\c3ccc(Oc4ccccc4)cc3)c3cc(O)c(O)c(O)c3n(C(=O)c3ccc(C(C)(C)C)cc3)c2c1 |  |
| 5160 | 4280 | 4520 | COC(=O)c1nn(-c2ccc(Oc3ccccc3)cc2)c(-c2ccc(OC(C)C)cc2)c1NC(=O)c1ccc(OC(C)C)cc1 |  |
| 6090 | 3260 | 3800 | CCOc1ccc(-c2cc(C(=O)O)nn2-c2ccccc2)cc1 |  |
|  |  |  | CN(C)CC[C@H](CSc1ccccc1)Nc1ccc(S(=O)(=O)NC(=O)c2ccc(N3CCN(Cc4ccccc4-c4ccc(Cl)cc4)CC3)cc2)cc1[N+](=O)[O-] | Activity [4]: 32%; Activity [6]: 40%; inhibition [7]: Active; inhibition [8]: Active; Activity [9]: 34%; inhibition [27]: inactive; Activity (DMS-53 [19]): Active; Activity [10]: 26%; Activity (DMS-53 [21]): Active; Activity [11]: 28%; Activity [12]: 24%; Activity [14]: 6.4%; Activity (DMS-53 [24]): Active; inhibition [28]: inactive; inhibition [29]: inactive; Activity [15]: 7.1%; Activity (HCT-116 [30]): Active |
| 406 | 689 | 404 | CCOc1ccc(-c2c(NC(=O)c3ccc(C(C)(C)C)cc3)c(C(=O)O)nn2-c2ccc(Oc3ccccc3)cc2)cc1 |  |
| 385 | 616 | 226 | CC(C)c1ccc(-n2nc(C(=O)O)cc2-c2ccc(OCc3ccccc3)cc2)cc1 |  |
| 5250 | 2140 | 2390 | CC(C)Oc1ccc(-c2cc(C(=O)O)nn2-c2ccc(C(C)C)cc2)cc1 |  |
| 1040 | 446 | 393 | CCOc1ccc(-c2c(NC(=O)c3ccc(OCC(C)C)cc3)c(C(=O)O)nn2-c2ccc(Oc3ccccc3)cc2)cc1 |  |

| Compound | Ki [1] [nM] | Ki [2] [nM] | Ki [3] [nM] | other results |
| --- | --- | --- | --- | --- |
| Cc1cc2c(C(C)C)c(O)c(O)c(C=O)c2c(O)c1-c1c(C)cc2c(C(C)C)c(O)c(O)c(C=O)c2c1O [GOSSYPOL] |  | > 25000 | 260 |  |
| O=C(O)c1cc(-c2ccc(OCc3ccccc3)cc2)n(-c2ccccc2)n1 | > 10000 | 19800 | > 10000 |  |
| CC(C)COc1ccc(-c2cc(C(=O)O)nn2-c2ccccc2)cc1 | > 10000 | 7420 | 8110 |  |
